Assay [1] addresses T1, RET (Homo sapiens (Human), UniProt P07949). As to the kind of experiment: Protein based RET kinase assay with purified recombinant GST-RET. The assay is classed as biochemical.
Target sequence in this assay (P07949 29-1114): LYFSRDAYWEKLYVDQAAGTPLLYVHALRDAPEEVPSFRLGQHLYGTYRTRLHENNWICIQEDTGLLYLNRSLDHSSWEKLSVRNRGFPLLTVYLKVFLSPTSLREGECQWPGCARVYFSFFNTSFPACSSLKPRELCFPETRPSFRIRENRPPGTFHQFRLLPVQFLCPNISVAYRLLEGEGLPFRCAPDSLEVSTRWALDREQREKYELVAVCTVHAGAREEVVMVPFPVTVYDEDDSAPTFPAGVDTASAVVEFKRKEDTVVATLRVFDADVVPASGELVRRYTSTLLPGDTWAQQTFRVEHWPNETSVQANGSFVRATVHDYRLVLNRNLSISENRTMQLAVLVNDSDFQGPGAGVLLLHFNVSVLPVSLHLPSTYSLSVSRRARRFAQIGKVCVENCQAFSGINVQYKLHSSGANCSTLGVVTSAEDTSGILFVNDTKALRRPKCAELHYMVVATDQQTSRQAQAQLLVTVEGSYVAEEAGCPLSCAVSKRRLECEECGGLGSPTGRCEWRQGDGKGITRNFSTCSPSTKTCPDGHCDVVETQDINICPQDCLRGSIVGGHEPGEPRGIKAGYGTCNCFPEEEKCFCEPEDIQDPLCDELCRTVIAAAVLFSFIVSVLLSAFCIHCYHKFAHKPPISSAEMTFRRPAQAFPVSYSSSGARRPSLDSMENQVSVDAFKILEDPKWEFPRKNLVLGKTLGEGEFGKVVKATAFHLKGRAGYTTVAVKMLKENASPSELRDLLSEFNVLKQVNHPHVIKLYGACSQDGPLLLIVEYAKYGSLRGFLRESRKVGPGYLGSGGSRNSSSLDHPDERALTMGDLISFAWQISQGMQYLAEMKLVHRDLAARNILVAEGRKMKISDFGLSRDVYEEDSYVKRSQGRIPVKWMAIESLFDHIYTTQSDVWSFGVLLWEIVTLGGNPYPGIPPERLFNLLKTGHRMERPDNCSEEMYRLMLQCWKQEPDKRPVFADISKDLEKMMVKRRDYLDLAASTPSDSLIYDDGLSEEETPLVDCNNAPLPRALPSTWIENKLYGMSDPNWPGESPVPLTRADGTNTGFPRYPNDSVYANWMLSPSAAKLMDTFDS
Assay [2] concerns the target T1, RET. As to the kind of experiment: RET autophosphorylation (pY905 Western blot) in HEK293 cells stably expressing RET. The assay is classed as cell-based. (In general: In western blotting, separated proteins are transferred to a membrane and probed.)
Target sequence in this assay (P07949 29-1114 limits assumed): as the sequence (P07949 29-1114) above
For the next assay, the system named is MiaPaca-2 tumours. The experiment in a line: Xenograft study, subcutaneous MiaPaca-2 tumours. Type of assay: in vivo. To be noted: MiaPaca-2 xenograft, nude mice, intraperitoneal; SW-01 50 mg/kg, gemcitabine 120 mg/kg.
Assay [3] has as its target T1, RET. On the set-up: key to the marks not given beside the values. To be noted: RET phosphorylation levels.
Target sequence in this assay (P07949 29-1114): as above
In assay [4] the test system is RET-mediated activation of ERK. Conditions: increasing concentrations, HEK293 cells.
The next assay has as its system ERK or AKT pathways. Conditions: parental HEK 293 cells not expressing RET, increasing concentration.
The subject of assay [5] is HEK293 cells stably expressing RET.
Assay [6] relates to RET-expressing HEK293 cells.
For assay [7], the system named is TT cells.
In the next assay the test system is MiaPaca-2 cells. Conditions: presence of GDNF.
In a further assay the test system is MCF7 cells. Conditions: presence of GDNF.
For assay [8], the system named is MiaPaca-2 cells expressing RET. To be noted: MiaPaca-2, GDNF + SW-01 (5 μM) relative to GDNF alone.
The next assay concerns BxPc3 tumours. To be noted: BxPc3 xenograft, nude mice, 50 mg/kg intraperitoneal every three days.
A further assay has as its target RET V804M mutant (Homo sapiens (Human), UniProt P07949, V804M). Conditions: HEK293 cells, 2 h.
In another assay the target is RET M918T mutant (Homo sapiens (Human), UniProt P07949, M918T). To be noted: HEK293 cells, 2 h.
For assay [9], the system named is TT cells. To be noted: 24 hours, 10× magnification.
Setting [10] is: purified protein assay, read-out: IC50.
The mark [11] stands for this setting: cell based assay, read-out: EC50.
Setting [12] is: varying concentrations, 2 hours, HEK293 cells expressing RET.

The record followed here is US8629135B2, “Pharmaceutical compositions comprising RET inhibitors and methods for the treatment of cancer” (Queen's University at Kingston, priority 2008, dated 2014).

Each structure is given as a SMILES string. pEC50, pIC50: −log10 of the molar value. “And” between values parts separate entries of the source, which are not always exact repeats. Equal entries are not always repeated. “Also recorded” adds a separate entry of the source. Structures can show the parent of a compound that is named as a salt. Where two headings read alike, the source gives them in different places.

RET V804M mutant, sequence (P07949 29-1114 V804M): as the sequence (P07949 29-1114) above, with V776M counted along it
RET M918T mutant, sequence (P07949 29-1114 M918T): as the sequence (P07949 29-1114) above, with M890T counted along it

What is called pIC50 is the IC50 on a negative log10 scale, so that one unit is a factor of ten. The term pEC50 denotes the EC50 on a negative log10 scale, so that one unit is a factor of ten. As to `CN(C)CCOC1c2ccccc2C=Cc2ccccc21` [SW-13, [2-(5H-Dibenzo[a,d]cyclohepten-5-yloxy)-ethyl]-dimethyl-amine], at RET [1] (setting [10]), the pIC50 is 5.60. The negative logarithm of the EC50 (pEC50) on RET [2] (setting [11]) is 5.15.

For the compound `CCN(CC)CCCOC(=O)CC1c2ccccc2C=Cc2ccccc21` [SW-12, (5H-Dibenzo[a,d]cyclohepten-5-yl)-acetic acid 3-diethylamino-propyl ester], the pIC50 at RET [1] (setting [10]) is 5.40. At RET [2], the pEC50 was under 4.70.

Turning to `CN(C)CCC=C1c2ccccc2CCc2ccccc21` [SW-05, Amitriptyline], at RET [1] (setting [10]), the pIC50 was 6.00. The compound further gave a pEC50 at RET [2] of 5.30. At RET [2] (setting [12]), the RET autophosphorylation entry is “inhibited RET activity; also recorded: decreased RET activity”.

As to `NCC1c2ccccc2CCc2ccccc21` [SW-08, 10,11-Dihydro-5H-dibenzo[a,d]cycloheptene-5-methanamine], on RET [1] (setting [10]), the pIC50 is 5.30. In addition, at RET [2], the pEC50 is 4.70.

Turning to `NCCCC1(CCCN)c2ccccc2-c2ccccc21` [SW-10, 9,9-Bis(3-aminopropyl)-fluorine], the pIC50 at RET [1] (setting [10]) was under 4.70. The pEC50 on RET [2] (setting [11]) was under 4.70.

Take `C[N+](C)([O-])CCC=C1c2ccccc2CCc2ccccc21.Cl` [SW-03, 3-(10,11-Dihydro-5H-dibenzo[a,d]cyclohepten-5-ylidene)-N,N-dimethyl-1-propanamine N-oxide hydrochloride]: the negative logarithm of the IC50 (pIC50) on RET [1] (setting [10]) is 5.00. Further, at RET [2], the pEC50 was under 4.70. On RET [2] (setting [12]), the RET autophosphorylation entry is on record as “did not affect RET autophosphorylation”.

Regarding `CN(C)CCCC1(O)c2ccccc2C=Cc2ccccc21` [SW-11, 5-(3-Dimethylamino-propyl)-5H-dibenzo[a,d]cyclohepten-5-ol], at RET [1] (setting [10]), the pIC50 was under 5.00. Besides, on RET [2] (setting [11]), the pEC50 was under 4.70.

`CNCCC=C1c2ccccc2C=Cc2ccccc21` [SW-15, Norcyclo- benzaprine (NCBA)] had a pEC50 on RET [2] of 6.00. Besides, at RET [2] (setting [12]), the RET autophosphorylation entry is “inhibited RET”.

As for `CN(C)CCNC1c2ccccc2-c2ccccc21` [SW-09, N′-Fluoren-9-yl-N,N-dimethyl-ethylenediamine dihydrochloride], the pIC50 at RET [1] (setting [10]) was under 4.70. The pEC50 on RET [2] (setting [11]) is under 4.70.

As for `CN(C)CCC=C1c2ccccc2C=Cc2ccccc21.Cl` [SW-01, Cyclobenzaprine Hydrochloride], the pIC50 at RET [1] (kinase assays using purified recombinant RET proteins, Hydrochloride, read-out: IC50 for RET) is 6.52 and 6.51; at RET [1] (setting [10]), 6.52. Moreover, the RET autokinase activity entry on RET [1] (purified recombinant RET, pY905 Western blot) was “significantly reduced RET autokinase activity”. Also, the RET autophosphorylation entry on RET [2] (10 μM for 2 hours, HEK293 cells expressing activated wildtype RET, Hydrochloride) is “significantly inhibited RET autophosphorylation”; at RET [2] (10 μM for 2 hours, HEK293 cells expressing activated wildtype RET, listed as NSC78206, Hydrochloride), “significant RET inhibition”; at RET [2] (setting [12]), “blocked or dramatically reduced”. In addition, the negative logarithm of the EC50 (pEC50) at RET [2] (EC50, cell based assay) was 6.00. The “expression levels of RET” value at RET [2] (pan RET antibody, HEK293 cells) is on record as “did not affect expression levels of RET”. The tumour growth result in the assay on MiaPaca-2 tumours was “no statistical difference between SW-01 and gemcitabine treatment groups”; in the assay on BxPc3 tumours, “caused slowed and reduced tumour growth”. In addition, the “SW-01 Inhibition (10 μM)” value at RET [3] is given as “++”. In addition, the “amount of pERK” value in [4] is listed as “significantly reduced”. Besides, the “effect on ERK or AKT pathways” value in the assay with ERK or AKT pathways is “did not affect ERK or AKT pathways”. The “RET-mediated cell proliferation (MTT)” value in assay [5] was “reduces RET-mediated cell proliferation”. The “RET-mediated colony formation in soft agar” value in [6] is “inhibits RET-mediated colony formation”. The apoptosis entry in the assay with TT cells [7] is recorded as “led to apoptosis”; in the assay on MiaPaca-2 cells, “caused dose-dependent apoptosis”; in the assay with NCIH69 cells, “caused apoptosis in NCIH69 cells in a dose-dependent fashion”; in the assay with MCF7 cells it was “caused apoptosis in MCF7 cells in a dose-dependent fashion”. Also, the “cell proliferation (MTT)” value with MiaPaca-2 and in the assay with BxPc3 was “caused decreased cell proliferation” each time. Further, in assay [8], the “cell migration (wound closure)” value is “cell migration was inhibited”. For the same compound, the “RET phosphorylation (pRET/RET)” value on RET V804M mutant and at RET M918T mutant was “inhibited by SW-01 in a concentration dependent fashion” throughout. Also, in the assay with TT cells [9], the cell morphology result is on record as “exhibited induced morphological changes”.

On to `CNCCC=C1c2ccccc2CCc2ccccc21` [SW-04, Nortriptyline], for which the pIC50 on RET [1] (setting [10]) was 5.82. The pEC50 on RET [2] (EC50, cell based assay) is 5.00. At RET [2] (setting [12]), the RET autophosphorylation result is given as “did not affect RET autophosphorylation”.

`Nc1ccn([C@@H]2O[C@H](CO)[C@@H](O)C2(F)F)c(=O)n1` [gemcitabine, reference compound]: the tumour growth entry in the assay on MiaPaca-2 tumours is “no statistical difference between SW-01 and gemcitabine treatment groups”.

As for `CNCCC=C1c2ccccc2CCc2ccccc21.Cl` [SW-02, Nortriptyline Hydrochloride], the pIC50 on RET [1] (purified protein assay, Hydrochloride, read-out: IC50) was 5.30. Moreover, on RET [2] (EC50, cell based assay), the pEC50 is under 4.70. In addition, on RET [2] (varying concentrations, 2 hours, HEK293 cells expressing RET, Hydrochloride), the RET autophosphorylation entry is “inhibited RET activity; also recorded: decreased RET activity”.

As for `CN(CCCN1c2ccccc2CCc2ccccc21)CC(=O)c1ccc(Cl)cc1` [SW-06, Lofepramine], the negative logarithm of the IC50 (pIC50) at RET [1] (setting [10]) is under 4.70. Further, on RET [2] (setting [11]), the pEC50 is under 4.70.

As for `CN(C)CCC=C1c2ccccc2C(C)(C)c2ccccc21` [SW-14, Melitracin], at RET [1] (setting [10]), the pIC50 was under 4.70. Further, on RET [2] (setting [11]), the pEC50 is under 4.70.
